This test deals with mouse skin wounds. The test is described as follows: Skin wound healing in mice (8 mm biopsy punch wound on the back). The format is in vivo, BALB/c mice. The settings on record: 20 μL, 200 μg/mL dripped into wound once a day for 8 days; days 2, 4, 6, 8 after operation; vs PBS. As to the method:
Experimental animals BALB/c mice, female, 6-8 weeks old, weighed 18-20 g, were purchased from Shanghai Slac Animal Co., Ltd. The mice were anesthetized by intraperitoneal injection of 2% sodium pentobarbital (0.1 mL/20 g), and the back was shaved with an electric razor and disinfected with iodophor. A hole was punched in the exposed back by a biopsy punch having a diameter of 8 mm. After the operation, the mice were kept in separate cages until the end of the experiment. The mice were randomly divided into 6 groups having 5 animals in each group, including a negative control group (20 μL PBS), a natural Ot-WHP group (20 μL, 200 μg/mL), a synthetic Ot-WHP group (20 μL, 200 μg/mL), a scrambled Ot-WHP group (SEQ ID NO:2, 20 μL, 200 μg/mL), an AH90 positive polypeptide control group (20 μL, 200 μg/mL), and an EGF growth factor control group (20 μL, 100 μg/mL). The drugs were dripped into corresponding wounds in mice once a day for 8 days.
FIGS. 3A1-A4 show the wound healing rate of mice in different experimental groups at 2, 4, 6, and 8 days after surgery. In the figures, Vehicle represents the negative control group; synthetic Ot-WHP represents the synthetic Ot-WHP group; Natural Ot-WHP represents the natural Ot-WHP group; and Scrambled Ot-WHP represents the scrambled Ot-WHP group.

As for “scrambled Ot-WHP: scrambled Ot-WHP, SEQ ID NO:2, control peptide (PGPIPAHLGRRWAILIRPDLTRCG; Scrambled Ot-WHP Peptide) [reference compound]”, the “healing of mouse skin wounds (wound healing rate)” value is given as “no activity to promote wound repair”.
